In patent US20180186742A1, “PICOLINAMIDES AS FUNGICIDES” (Dow AgroSciences LLC, priority 2017, published 2018):
Like-named read-outs stand apart in the source and are kept apart here.

Experiments:
Assay type in all cases: in vivo
[1] = system: Pseudoperonospora cubensis; experiment: Cucumber downy mildew (PSPECU), disease control on cucumber seedlings; settings: 24 h, 1DP (1 Day Protectant) test at 100 ppm
Method: Technical grades of materials were dissolved in acetone, which were then mixed with nine volumes of water containing 110 ppm Triton X-100. The fungicide solutions were applied onto wheat seedlings using an automated booth sprayer to run-off. All sprayed plants were allowed to air dry prior to further handling. All fungicides were evaluated using the aforementioned method for their activity vs. all target diseases, unless stated otherwise. Wheat leaf blotch and brown rust activity were also evaluated using track spray applications, in which case the fungicides were formulated as EC formulations, containing 0.1% Trycol 5941 in the spray solutions. Cucumber seedlings (variety Bush Pickle) were grown in soil-less Metro mix, with one plant per pot, and used in the test when 12 to 14 days old. Plants were inoculated with a spore suspension 24 hr following fungicide treatments. Test plants were inoculated with an aqueous spore suspension of Pseudoperonospora cubensis 24 hr after fungicide treatments. After inoculation the plants were kept in a dew room at 22° C. with 100% relative humidity for 24 hr to permit spores to germinate and infect the leaf. The plants were then transferred to a greenhouse set at 20° C. until disease was fully expressed. Fungicide formulation, application and disease assessment on the sprayed leaves followed the procedures as described in the Example A.

Alternaria solani = experiment: Tomato early blight (ALTESO), disease control on tomato plants; settings: 1DP test at 100 ppm, read-out: ALTESO disease control rating
Method: Technical grades of materials were dissolved in acetone, which were then mixed with nine volumes of water containing 110 ppm Triton X-100. The fungicide solutions were applied onto wheat seedlings using an automated booth sprayer to run-off. All sprayed plants were allowed to air dry prior to further handling. All fungicides were evaluated using the aforementioned method for their activity vs. all target diseases, unless stated otherwise. Wheat leaf blotch and brown rust activity were also evaluated using track spray applications, in which case the fungicides were formulated as EC formulations, containing 0.1% Trycol 5941 in the spray solutions. Tomato plants (variety Outdoor Girl) were propagated in soil-less Metro mix, with each pot having one plant, and used when 12 to 14 days old. Test plants were inoculated with an aqueous spore suspension of Alternaria solani 24 hr after fungicide treatments. After inoculation the plants were kept in 100% relative humidity (one day in a dark dew chamber followed by two to three days in a lighted dew chamber at 20° C.) to permit spores to germinate and infect the leaf. The plants were then transferred to a growth room at 22° C. for disease to develop. Fungicide formulation, application and disease assessment on the sprayed leaves followed the procedures as described in the Example A.

Zymoseptoria tritici = experiment: Leaf blotch of wheat (SEPTTR), disease control on wheat seedlings; settings: low volume application at 121.5 g/H
Outline: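 Yuma wheat seedlings with the first leaf fully emerged were sprayed to run-off with compound in acetone plus nine volumes of water containing 110 ppm Triton X-100; track-spray tests used EC formulations with 0.1% Trycol 5941. Z. tritici inoculation came before or after treatment, followed by 100% RH dew periods and a 20 °C greenhouse. Percent control was calculated from severity versus untreated plants.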

Uncinula necator = experiment: Grape powdery mildew (UNCINE), disease control on grape seedlings; settings: Erysiphe necator, 24 h, 1DP (1 Day Protectant) test at 100 ppm
Method: Technical grades of materials were dissolved in acetone, which were then mixed with nine volumes of water containing 110 ppm Triton X-100. The fungicide solutions were applied onto wheat seedlings using an automated booth sprayer to run-off. All sprayed plants were allowed to air dry prior to further handling. All fungicides were evaluated using the aforementioned method for their activity vs. all target diseases, unless stated otherwise. Wheat leaf blotch and brown rust activity were also evaluated using track spray applications, in which case the fungicides were formulated as EC formulations, containing 0.1% Trycol 5941 in the spray solutions. Grape seedlings (variety Carignane) were grown in soil-less Metro mix, with one plant per pot, and used in the test when approximately 1 month old. Plants were inoculated 24 hr after fungicide treatment by shaking spores from infected leaves over test plants. Plants were maintained in a greenhouse set at 20° C. until disease was fully developed. Fungicide formulation, application and disease assessment on sprayed leaves followed the procedures as described in the Example A.

Cercospora beticola = experiment: Leaf spot of sugar beets (CERCBE), disease control on sugar beet plants; settings: 1DP test at 100 ppm, read-out: CERCBE disease control rating
Method: Technical grades of materials were dissolved in acetone, which were then mixed with nine volumes of water containing 110 ppm Triton X-100. The fungicide solutions were applied onto wheat seedlings using an automated booth sprayer to run-off. All sprayed plants were allowed to air dry prior to further handling. All fungicides were evaluated using the aforementioned method for their activity vs. all target diseases, unless stated otherwise. Wheat leaf blotch and brown rust activity were also evaluated using track spray applications, in which case the fungicides were formulated as EC formulations, containing 0.1% Trycol 5941 in the spray solutions. Sugar beet plants (variety HH88) were grown in soil-less Metro mix and trimmed regularly to maintain a uniform plant size prior to test. Plants were inoculated with a spore suspension 24 hr after fungicide treatments. Inoculated plants were kept in a dew chamber at 22° C. for 48 hr then incubated in a greenhouse set at 24° C. under a clear plastic hood with bottom ventilation until disease symptoms were fully expressed. Fungicide formulation, application and disease assessment on the sprayed leaves followed the procedures as described in the Example A.

COc1ccnc(C(=O)N[C@@H](C)C(=O)O[C@@H](C)[C@H](c2ccc(F)cc2C)C(C)C)c1OC(=O)C1CCCC1 [Compound 354]
> 80%: pest or weed control at 100 ppm [1] | pest or weed control at 121.5 g/ha (Zymoseptoria tritici; 24 h, 1 Day Protectant, read-out: SEPTTR disease control, 1DP, LV activity) | pest or weed control at 121.5 g/ha (Zymoseptoria tritici; 72 h, 3 Day Curative, read-out: SEPTTR disease control, 3DC, LV activity) | pest or weed control at 100 ppm (Uncinula necator) | pest or weed control at 100 ppm (Cercospora beticola)
< 80%: pest or weed control at 100 ppm (Alternaria solani)
